Test results: patent US11945806B2, “Stabilization of amyloidogenic immunoglobulin light chains” (The Scripps Research Institute, priority 2019, dated 2024)

These compounds were tested against WIL-FL (Homo sapiens, UniProt P01721) (assay: Unlabeled LC Protease Sensitivity Assay (proteinase K)). Settings: small molecule 10 μM, WIL-FL 5 μM, proteinase K 50 nM, 2 hours at 37° C.
Assay type: biochemical
Procedure, shortened: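 Compound at 10 μM (1% DMSO) is mixed with 5 μM WIL-FL and 50 nM proteinase K in PBS pH 7.4/0.02% Pluronic F-127, 37 °C, 2 h, then quenched with PMSF. Remaining protein measured by SEC-UPLC peak area at 280 nm and expressed as fold protection relative to vehicle and no-protease controls.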
`CCN(CC)c1ccc2c(C)c(CCOC(=O)NCc3cccc(-c4nc[nH]n4)c3)c(=O)oc2c1` [Compound 165, 2-(7-(diethylamino)-4-methyl-2-oxo-2H-chromen-3-yl)ethyl (3-(1H-1,2,4-triazol-5-yl)benzyl)carbamate] was tested, and the “Protection (fold protection of LC from protease)” value was “C (C ≥ 0.6)”. In the case of `CCN(CC)c1ccc2c(CCCOC(=O)NCc3cccc(CCC(=O)O)c3)cc(=O)oc2c1` [Compound 305, 3-(3-((((3-(7-(diethylamino)-2-oxo-2H-chromen-4-yl)propoxy)carbonyl)amino)methyl)phenyl)propanoic acid], the “Protection (fold protection of LC from protease)” value was “A (A < 0.3))”. `CCN(CC)c1ccc2c(C)c(CCC(=O)NCCc3ccncc3)c(=O)oc2c1` [Compound 76] was tested, and the “Protection (fold protection of LC from protease)” value was “A (A < 0.3))”. `CCN(CC)c1ccc(NC(=O)CN2C(=O)CNC2=O)cc1` [Compound 150, N-(4-(diethylamino)phenyl)-2-(2,5-dioxoimidazolidin-1-yl)acetamide] was tested, and the “Protection (fold protection of LC from protease)” value was “A (A < 0.3))”. With `CCN(CC)c1ccc2c(C)c(CCN3C(=O)NC4(CCN(S(=O)(=O)CC)C4)C3=O)c(=O)oc2c1` (centres unmarked) [Compound 203, 3-(2-(7-(diethylamino)-4-methyl-2-oxo-2H-chromen-3-yl)ethyl)-7-(ethylsulfonyl)-1,3,7-triazaspiro[4.4]nonane-2,4-dione] the “Protection (fold protection of LC from protease)” value was “C (C ≥ 0.6)”. `CCN(CCCc1ccccc1)c1ccc2c(C)cc(=O)oc2c1` [Compound 31, 7-(ethyl(3-phenylpropyl)amino)-4-methyl-2H-chromen-2-one] was tested, and the “Protection (fold protection of LC from protease)” value was “A (A < 0.3))”. `CCN(CC)c1ccc2c(C)c(CCNC(=O)NCCc3cnc[nH]3)c(=O)oc2c1` [Compound 281, 1-(2-(1H-imidazol-5-yl)ethyl)-3-(2-(7-(diethylamino)-4-methyl-2-oxo-2H-chromen-3-yl)ethyl)urea] was tested, and the “Protection (fold protection of LC from protease)” value was “B (3 ≤ B < 0.6)”. For `CCN(CC)c1ccc2c(C)c(CCN3C(=O)NC4(CCN(C(=O)c5ccncn5)C4)C3=O)c(=O)oc2c1` (centres unmarked) [Compound 207, 3-(2-(7-(diethylamino)-4-methyl-2-oxo-2H-chromen-3-yl)ethyl)-7-(pyrimidine-4-carbonyl)-1,3,7-triazaspiro[4.4]nonane-2,4-dione], the “Protection (fold protection of LC from protease)” value was “B (3 ≤ B < 0.6)”. `CCN(CC)c1ccc2c(C)c(CCNC(C)=O)c(=O)oc2c1` [Compound 94, N-(2-(7-(diethylamino)-4-methyl-2-oxo-2H-chromen-3-yl)ethyl)acetamide] was tested, and the “Protection (fold protection of LC from protease)” value was “A (A < 0.3))”. With `CCN(CC)c1ccc2c(C)c(CCOC(=O)NCc3cccc(-c4ccccn4)c3)c(=O)oc2c1` [Compound 154, 2-(7-(diethylamino)-4-methyl-2-oxo-2H-chromen-3-yl)ethyl (3-(pyridin-2-yl)benzyl)carbamate] the “Protection (fold protection of LC from protease)” value was “C (C ≥ 0.6)”. For `CCN(CC)c1ccc2c(C)c(CCOC(=O)NCc3ccccc3)c(=O)oc2c1` [Compound 78, 2-(7-(diethylamino)-4-methyl-2-oxo-2H-chromen-3-yl)ethyl benzylcarbamate], the “Protection (fold protection of LC from protease)” value was “A (A < 0.3))”. `CCN(CC)c1ccc2c(CCCOC(=O)NCc3cccc(CCC(=O)OC)c3)cc(=O)oc2c1` [Compound 306, Methyl 3-(3-((((3-(7-(diethylamino)-2-oxo-2H-chromen-4yl)propoxy)carbonyl)amino)methyl)phenyl)propanoate] was tested, and the “Protection (fold protection of LC from protease)” value was “A (A < 0.3))”. `C=CCN(CC=C)c1ccc2c(C)cc(=O)oc2c1` [Compound 231, 7-(diallylamino)-4-methyl-2H-chromen-2-one] was tested, and the “Protection (fold protection of LC from protease)” value was “A (A < 0.3))”. With `CCN(CC)c1ccc2c(C)c(CCN3C(=O)NC4(CCN(S(=O)(=O)c5cccnc5)C4)C3=O)c(=O)oc2c1` (centres unmarked) [Compound 202, 3-(2-(7-(diethylamino)-4-methyl-2-oxo-2H-chromen-3-yl)ethyl)-7-(pyridin-3-ylsulfonyl)-1,3,7-triazaspiro[4.4]nonane-2,4-dione] the “Protection (fold protection of LC from protease)” value was “C (C ≥ 0.6)”.
